From patent publication US10927076B2, “HSP90B N-terminal isoform-selective inhibitors” (priority 2017, dated 2021) come the findings set out here.

The target of one experiment is Hsp90α (Homo sapiens (Human), UniProt P07900). As to the kind of experiment: Fluorescence polarization assay (FITC-GDA tracer displacement). The format is binding. The method, then:
(§1) Florescence Polarization.
(§2) Assay was performed in 96-well format in black, flat bottom plates (Santa Cruz Biotechnology) with a final volume of 100 μL. […] Compounds were tested in triplicate wells (1% DMSO final concentration). For each plate, wells containing buffer only (background), tracer in buffer only (low polarization control), and protein and tracer in buffer with 1% DMSO (highpolarization control) were included. Plates were incubated at 4° C. with rocking for 24 h. […] Polarization values were correlated to % tracer bound and compound concentrations. The concentration at which the tracer was 50% displaced by the inhibitor was determined using Graphpad Prism.

For another experiment, the target named is Hsp90β (Homo sapiens (Human), UniProt P08238). Described as above. The following applies: for Selectivity: Hsp90β over Hsp90α. In kind it is binding. The procedure:
as §1, §2

A further experiment deals with MCF-7. Nature of the experiment: Anti-proliferation activity. The format is cell-based. The following applies: Homo sapiens, MCF7.
The next experiment concerns SkBr3. Nature of the experiment: Anti-proliferation activity. The format is cell-based. Conditions: Homo sapiens, SK-BR-3.
A further experiment deals with NCI-H23 cells. As to the kind of experiment: Anti-proliferation assay (MTS/PMS, 72 h). In kind it is cell-based. Conditions: Homo sapiens, non-small cell lung cancer.
The next experiment deals with Grp94. Nature of the experiment: Fluorescence polarization assay (FITC-GDA tracer displacement). In kind it is binding. The procedure:
as §1, §2
On the technique in general: Fluorescence polarisation rises when a labelled molecule tumbles more slowly, as on binding a larger partner.

Setting [1] is: fluorescence polarization, read-out: Kd Hsp90β.

Like-named read-outs stand apart in the source and are kept apart here.

Sequence of Hsp90β (P08238 whole entry): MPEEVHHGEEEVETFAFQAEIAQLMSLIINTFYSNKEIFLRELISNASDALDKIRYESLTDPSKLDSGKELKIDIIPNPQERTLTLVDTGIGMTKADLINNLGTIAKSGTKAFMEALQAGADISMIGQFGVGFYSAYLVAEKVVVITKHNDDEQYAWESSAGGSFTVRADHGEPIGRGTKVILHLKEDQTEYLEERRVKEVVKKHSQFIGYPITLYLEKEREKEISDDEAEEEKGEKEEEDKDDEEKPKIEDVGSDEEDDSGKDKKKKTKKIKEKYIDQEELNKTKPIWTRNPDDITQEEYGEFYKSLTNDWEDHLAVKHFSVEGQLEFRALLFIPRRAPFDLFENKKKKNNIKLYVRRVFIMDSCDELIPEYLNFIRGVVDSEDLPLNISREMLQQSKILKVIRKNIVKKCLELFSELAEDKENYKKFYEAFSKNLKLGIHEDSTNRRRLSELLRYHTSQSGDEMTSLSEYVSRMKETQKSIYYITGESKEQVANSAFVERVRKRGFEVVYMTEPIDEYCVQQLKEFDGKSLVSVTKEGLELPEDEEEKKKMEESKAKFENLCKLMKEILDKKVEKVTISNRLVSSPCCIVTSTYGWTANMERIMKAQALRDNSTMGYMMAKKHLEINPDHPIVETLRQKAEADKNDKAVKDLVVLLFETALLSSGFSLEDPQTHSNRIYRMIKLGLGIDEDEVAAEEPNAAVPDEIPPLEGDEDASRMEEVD
Description for NCI-H23 cells: Cells were grown to confluence and seeded at 2000 cells/well/0.1 mL in a 96-well plate and placed back in the incubator for 24 h. Compounds or vehicle were administered at the desired concentrations (1% DMSO final concentration) and incubated for 72 h. The % viable cells was determined using the MTS/PMS cell proliferation kit (Promega) per the manufacturer's instructions. Cells treated with vehicle were normalized to 100% proliferation and values adjusted accordingly.

`COCc1cc(O)c(C(=O)N2Cc3ccccc3C2)cc1C(C)C` [Compound 3, (2-Hydroxy-5-isopropyl-4-(methoxymethyl)phenyl)(isoindolin-2-yl)methanone]: the “binding to Hsp90α” value on Hsp90α (at 10 μM) is “did not bind”. Also, the “binding to Hsp90β” value at Hsp90β (at 10 μM) is recorded as “did not bind”.
On to `CC(C)c1cc(C(=O)N2Cc3ccccc3C2)c(O)cc1CCl` [Cl], for which the Kd on Hsp90α (fluorescence polarization) is over 100 µM; on Hsp90β (setting [1]) it was 25.2 ± 1.45 µM.
In turn, `COCOc1c(C(C)C)cc(C(=O)N2Cc3ccccc3C2)c(O)c1CCO` [KUNB7, (2-Hydroxy-3-(2-hydroxyethyl)-5-isopropyl-4-(methoxymethoxy)phenyl) (isoindolin-2-yl)methanone] had a Kd at Hsp90β of at least 100 µM.
For the compound `CC(C)c1ccc(O)c(C(=O)N2Cc3ccccc3C2)c1` [Compound 1], the values for the Kd on Hsp90α (fluorescence polarization) and at Hsp90β (setting [1]) were 3.21 µM and 1.63 µM, respectively. Moreover, the “selectivity for Hsp90β over Hsp90α” value at Hsp90β is about 2 fold.
On to `CCCc1c(O)c(C(=O)N2Cc3ccccc3C2)cc(C(C)C)c1OCOC` [KUNB5, (2-Hydroxy-5-isopropyl-4-(methoxymethoxy)-3-propylphenyl)(isoindolin-2-yl)methanone], for which the affinity on Hsp90β, expressed as Kd, was 6.3 µM.
With `CC(C)c1cc(C(=O)N2Cc3ccccc3C2)c(O)c2[nH]ncc12`, the half-inhibitory concentration (IC50) in the experiment with MCF-7 amounted to 19.1 µM; with SkBr3 it was 29.7 µM; with NCI-H23 cells it was 13.7 µM.
In turn, `C=CCc1c(O)c(C(=O)N2Cc3ccccc3C2)cc(C(C)C)c1OCOC` [KUNB6, (3-Allyl-2-hydroxy-5-isopropyl-4-(methoxymethoxy)phenyl)(isoindolin-2-yl)methanone] showed a Kd at Hsp90β of at least 100 µM.
For `CC(C)c1cc(C(=O)N2Cc3ccccc3C2)c(O)cc1CC#N` [Compound 2, 2-(5-Hydroxy-4-(isoindoline-2-carbonyl)-2-isopropylphenyl)acetonitrile], the “selectivity for Hsp90β over Hsp90α” value on Hsp90β is about 2.5 fold. The dissociation constant (Kd) on Hsp90β (setting [1]) worked out at 0.97 µM.
Turning to `CC(C)c1cc(C(=O)N2Cc3ccc(F)cc3C2)c(O)c2cnoc12`, the IC50 turned out to be 16.6 µM with MCF-7 and 5.76 µM in the experiment on NCI-H23 cells.
In the case of `CC(C)c1cc(C(=O)N2Cc3ccccc3C2)c(O)c2cn[nH]c12` [KUNB18], the Kd was found to be 82.5 µM at Hsp90α (fluorescence polarization) and 3.71 µM at Hsp90β (setting [1]). The Selectivity at Hsp90β came to 22.
On to `CC(C)c1cc(C(=O)N2Cc3ccc(F)cc3C2)c(O)c(CO)c1O`, for which the figures for the IC50 in the experiment on MCF-7 and with NCI-H23 cells were 13.2 µM and 2.13 ± 0.7 µM, respectively.
On to `CC(C)c1cc(C(=O)N2Cc3ccccc3C2)c(O)cc1CBr` [Br], for which the dissociation constant Kd worked out at 4.98 ± 0.97 µM on Hsp90α (fluorescence polarization) and 0.73 ± 0.11 µM at Hsp90β (setting [1]).
In turn, `CC(C)c1cc(C(=O)N2Cc3ccccc3C2)c(O)cc1C=O` [CHO] showed a Kd on Hsp90α of 1.21 ± 0.12 µM.
In the case of `CNCc1cc(O)c(C(=O)N2Cc3ccccc3C2)cc1C(C)C` [NHCH3], the Kd at Hsp90α (fluorescence polarization) was over 100 µM; at Hsp90β (setting [1]), 23.2 ± 1.07 µM.
Take `CC(C)c1cc(C(=O)N2Cc3ccccc3C2)c(O)c2c1C1C=NNC1O2` (stereo not drawn) [KUNB17]: the values for the Kd at Hsp90α (fluorescence polarization) and at Hsp90β (setting [1]) were at least 10 µM and 0.72 µM, respectively. The compound also registered a Selectivity at Hsp90β of at least 14.
Turning to `COCc1cc(O)c(C(=O)N2Cc3ccccc3C2)cc1C(C)C` [OMe], the Kd on Hsp90α (fluorescence polarization) and on Hsp90β (setting [1]) was over 50 µM throughout.
`CCN1Cc2c(C(C)C)cc(C(=O)N3Cc4ccccc4C3)c(O)c2C1=O` [KUNB26]: the dissociation constant (Kd) is at least 10 µM on Hsp90α (fluorescence polarization) and 0.53 µM at Hsp90β (setting [1]). The compound also had a Selectivity on Hsp90β of at least 19.
On to `C=Cc1c(O)c(C(=O)N2Cc3ccccc3C2)cc(C(C)C)c1O` [KUNB2, (2,4-Dihydroxy-5-isopropyl-3-vinylphenyl)(isoindolin-2-yl)methanone], for which, on Hsp90β (setting [1]), the Kd is 5.24 µM.
Still for that read-out and setting: to `CC(C)c1cc(C(=O)N2Cc3ccccc3C2)c(O)c(C=O)c1O` [KUNB1, 2,6-Dihydroxy-3-(isoindoline-2-carbonyl)-5-isopropylbenzaldehyde] belongs at least 100 µM.
For `CC(C)c1cc(C(=O)N2Cc3ccccc3C2)c(O)cc1C=O` [Compound 4, 5-Hydroxy-4-(isoindoline-2-carbonyl)-2-isopropylbenzaldehyde], the affinity at Hsp90α, expressed as Kd, was 1.55 µM.
As to `CC(C)c1cc(C(=O)N2Cc3ccccc3C2)c(O)c2cnoc12`, the IC50 in the experiment with MCF-7 was found to be 28.3 ± 1.47 µM; in the experiment with SkBr3, 38.2 ± 2.75 µM.
Regarding `CC(C)c1cc(C(=O)N2Cc3ccccc3C2)c(O)c2nc[nH]c12` [KUNB19], the Kd at Hsp90α (fluorescence polarization) was at least 100 µM; on Hsp90β (setting [1]) it was 6.3 µM. Further, the Selectivity at Hsp90β was 1.6.
Consider `O=C(c1cc(Br)c2cn[nH]c2c1O)N1Cc2ccccc2C1`, for which the IC50 with SkBr3 stood at 23.6 µM; in the experiment with NCI-H23 cells, 13.4 µM.
As for `CC1Cc2c(C(C)C)cc(C(=O)N3Cc4ccccc4C3)c(O)c2C1=O` (stereo not drawn) [KUNB28], the results for the Kd at Hsp90α (fluorescence polarization) and on Hsp90β (setting [1]) were at least 10 µM and 0.295 µM, respectively. Also, the Selectivity on Hsp90β is reported as at least 34.
Consider `CC(C)c1cc(C(=O)N2Cc3ccccc3C2)c(O)c2c1CCC2=O` [KUNB22], for which the Kd on Hsp90α (fluorescence polarization) is 9.3 µM; on Hsp90β (setting [1]), 0.11 µM. For the same compound, the Selectivity on Hsp90β is on record as 85.
In the case of `CC(C)c1cc(C(=O)N2Cc3ccccc3C2)c(O)cc1CC#N` [CN], the Kd on Hsp90α (fluorescence polarization) worked out at 2.28 ± 0.12 µM.
For `CC(C)c1cc(C(=O)N2Cc3ccccc3C2)c(O)c(CN)c1O` [KUNB4, (3-(Aminomethyl)-2,4-dihydroxy-5-isopropylphenyl)(isoindolin-2-yl)methanone], on Hsp90β, the Kd was at least 100 µM.
`CC(C)c1cc(C(=O)N2Cc3ccccc3C2)c(O)c(CO)c1O` [drawing 45]: the IC50 in the experiment on MCF-7 turned out to be 13.7 ± 1.46 µM; in the experiment on SkBr3 it was 9.13 ± 1.03 µM; in the experiment with NCI-H23 cells it was 3.9 ± 0.33 µM.
For `CCc1cc(O)c(C(=O)N2Cc3ccccc3C2)cc1C(C)C` [CH3], the Kd at Hsp90α (fluorescence polarization) and at Hsp90β (setting [1]) was over 50 µM each time.
As for `CCc1c(O)c(C(=O)N2Cc3ccccc3C2)cc(C(C)C)c1O` [KUNB3, (3-Ethyl-2,4-dihydroxy-5-isopropylphenyl)(isoindolin-2-yl)methanone], the Kd on Hsp90β (setting [1]) was 3.31 µM.
With `CCCC1Cc2c(C(C)C)cc(C(=O)N3Cc4ccccc4C3)c(O)c2C1=O` (stereo not drawn) [KUNB24], the Kd is at least 100 µM on Hsp90α (fluorescence polarization) and 2.7 µM at Hsp90β (setting [1]). Further, the Selectivity on Hsp90β is reported as at least 37.
With `CC(C)c1cc(C(=O)N2Cc3ccccc3C2)c(O)c(CO)c1O` [KUNB14, (2,4-Dihydroxy-3-(hydroxymethyl)-5-isopropylphenyl)(isoindolin-2-yl)methanone], the Kd at Hsp90β (setting [1]) came to 4.27 µM.
Take `CC(C)c1cc(C(=O)N2Cc3ccccc3C2)c(O)cc1CO` [OH]: the Kd at Hsp90α (fluorescence polarization) turned out to be 4.21 ± 0.62 µM; at Hsp90β (setting [1]), 1.97 ± 0.07 µM.
Regarding `CCC1Cc2c(C(C)C)cc(C(=O)N3Cc4ccccc4C3)c(O)c2C1=O` (stereo not drawn) [KUNB23], the Kd is at least 10 µM on Hsp90α (fluorescence polarization) and 0.58 µM on Hsp90β (setting [1]). Also, the Selectivity on Hsp90β was at least 17.
With `CC(C)c1cc(C(=O)N2Cc3ccc(F)cc3C2)c2oncc2c1O` [KUNB31b, (5-fluoroisoindolin-2-yl)(4-hydroxy-5-isopropylbenzo[d]isoxazol-7-yl)methanone], the “selectivity for Hsp90β over Hsp90α” value at Hsp90β is recorded as about 50 fold. Besides, the “selectivity for Hsp90β over Grp94” value in the experiment on Grp94 is recorded as about 50 fold.
`CC(C)c1cc(C(=O)N2Cc3ccccc3C2)c(O)c2c1CNC2=O` [KUNB25]: the Kd at Hsp90α (fluorescence polarization) was at least 10 µM; on Hsp90β (setting [1]), 0.33 µM. On Hsp90β, this compound gave a Selectivity of at least 30.
Turning to `CC(C)c1cc(C(=O)N2Cc3ccccc3C2)c(O)cc1N` [NH2], the results for the Kd at Hsp90α (fluorescence polarization) and at Hsp90β (setting [1]) were 0.46 ± 0.22 µM and 0.71 µM, respectively.

A word on the Kd: it is the concentration at which binding is half-saturated. One may read the IC50 as the concentration that inhibits the measured activity by half. Lower therefore signals inhibition by little substance.
